Values joined by “and” are separate entries in the source; they are usually repeats but may differ in a detail not shown here. Equal entries are not always repeated.
Test system: Erwinia amylovara
Assay: Measuring the efficiency against fire blight on inoculated apple blossoms
Assay type: in vivo
Conditions: 0.06 % by weight in water (positive control); apple blossoms sprayed 1 h after inoculation, 6 days, vs water control
Method: For measuring the efficiency of the aqueous compositions, 24 blossoms of the apple varieties Braeburn, Jona Gold and Gala are placed in sugar solution and inoculated with a suspension of Erwinia amylovara at 10^6 bacterial cells. One hour after inoculation, the blossoms are sprayed, respectively, with the composition to be tested or with water, serving as a negative control, until completely wetted. These blossoms are incubated for 6 days at 20 to 23° C. and at a relative humidity of 100%.
The efficiency specifies the decrease of infested blossoms utilizing the composition to be tested in comparison to blossoms, which were treated with water only. All tests are conducted three to six times, and from the measured data the empirical mean of the efficiency, as well as the empirical standard deviation σ are calculated, whereby the standard deviation σ represents […] of the data from the arithmetic mean of the efficiency.

## [H]/N=C(/N)N[C@H]1[C@H](O)[C@@H](O)[C@H](O[C@@H]2O[C@@H](C)[C@](O)(C=O)[C@H]2O[C@@H]2O[C@@H](CO)[C@H](O)[C@@H](O)[C@@H]2NC)[C@@H](N/C(N)=N\[H])[C@@H]1O [streptomycin]
  mean of efficiency: 74% and 70% and 75%
